Source: patent publication US20240279240A1, “HETEROCYCLIC DERIVATIVES AS JANUS KINASE INHIBITORS” (CHIESI FARMACEUTICI S.P.A., priority 2021, published 2024)

Legend:
JAK 1 = JAK 1 (Homo sapiens, UniProt P23458); assay: Biochemical potency on JAK1, TR-FRET LANCE Ultra kinase assay (examples 1-99); details: ATP at Km (20 μM), read-out: JAK1 inhibitory activity (pIC50 class) (converted)
Method in brief: (§1)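 Inhibition of each JAK family kinase is measured as loss of phosphotyrosine signal on a ULight peptide, detected by Eu-PT66 antibody (final 0.5 nM) via time-resolved FRET. ATP sits near Km for each isoform. Dose–response spans 20 μM downward in 5-fold steps, 11 points.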

JAK 3 = molecular target: T1, JAK 3 (Homo sapiens, UniProt P52333); assay: Biochemical potency on JAK3, TR-FRET LANCE Ultra kinase assay (examples 1-99); details: ATP at Km (0.2 μM), read-out: JAK3 inhibitory activity (pIC50 class) (converted)
T1 sequence (P52333 1-1124): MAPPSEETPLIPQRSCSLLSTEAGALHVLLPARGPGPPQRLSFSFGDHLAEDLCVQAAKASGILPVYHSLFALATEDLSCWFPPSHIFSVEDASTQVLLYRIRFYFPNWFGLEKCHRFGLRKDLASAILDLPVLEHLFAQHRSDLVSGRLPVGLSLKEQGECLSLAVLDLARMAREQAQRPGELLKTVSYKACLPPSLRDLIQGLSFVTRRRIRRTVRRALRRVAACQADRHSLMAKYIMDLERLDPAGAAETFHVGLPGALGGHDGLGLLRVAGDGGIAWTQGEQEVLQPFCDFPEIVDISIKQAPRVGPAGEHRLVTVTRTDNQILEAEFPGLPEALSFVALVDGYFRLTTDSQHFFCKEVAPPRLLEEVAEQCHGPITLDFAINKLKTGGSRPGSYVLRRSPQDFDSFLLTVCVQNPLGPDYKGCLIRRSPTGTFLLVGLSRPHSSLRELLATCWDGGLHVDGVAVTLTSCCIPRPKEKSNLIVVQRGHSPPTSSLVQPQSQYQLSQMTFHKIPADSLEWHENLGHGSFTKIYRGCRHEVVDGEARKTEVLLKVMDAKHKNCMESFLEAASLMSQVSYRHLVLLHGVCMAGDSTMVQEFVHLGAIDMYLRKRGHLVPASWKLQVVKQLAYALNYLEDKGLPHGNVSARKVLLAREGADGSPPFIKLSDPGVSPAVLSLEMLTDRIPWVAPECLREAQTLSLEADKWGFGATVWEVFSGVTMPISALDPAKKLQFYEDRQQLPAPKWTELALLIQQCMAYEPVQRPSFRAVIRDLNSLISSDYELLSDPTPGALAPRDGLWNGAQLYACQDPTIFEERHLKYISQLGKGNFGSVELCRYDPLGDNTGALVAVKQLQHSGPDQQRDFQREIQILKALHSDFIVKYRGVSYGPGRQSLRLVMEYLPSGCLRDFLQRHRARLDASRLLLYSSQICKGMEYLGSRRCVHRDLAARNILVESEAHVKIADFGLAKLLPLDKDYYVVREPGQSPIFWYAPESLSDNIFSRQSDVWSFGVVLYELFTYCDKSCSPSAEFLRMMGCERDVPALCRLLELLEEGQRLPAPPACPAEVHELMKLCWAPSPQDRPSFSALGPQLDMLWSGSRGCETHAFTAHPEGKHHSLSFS
Method in brief: as §1

TYK2 = TYK2 (Homo sapiens, UniProt P29597); assay: Biochemical potency on Tyk2, TR-FRET LANCE Ultra kinase assay (examples 1-99); details: ATP at Km (12 μM), read-out: Tyk2 inhibitory activity (pIC50 class) (converted)
Method in brief: as §1

JAK 2 = JAK 2 (Homo sapiens, UniProt O60674); assay: Biochemical potency on JAK2, TR-FRET LANCE Ultra kinase assay (examples 1-99); details: ATP at Km (0.7 μM), read-out: JAK2 inhibitory activity (pIC50 class) (converted)
Method in brief: as §1

Chain of TYK2 (P29597 whole entry): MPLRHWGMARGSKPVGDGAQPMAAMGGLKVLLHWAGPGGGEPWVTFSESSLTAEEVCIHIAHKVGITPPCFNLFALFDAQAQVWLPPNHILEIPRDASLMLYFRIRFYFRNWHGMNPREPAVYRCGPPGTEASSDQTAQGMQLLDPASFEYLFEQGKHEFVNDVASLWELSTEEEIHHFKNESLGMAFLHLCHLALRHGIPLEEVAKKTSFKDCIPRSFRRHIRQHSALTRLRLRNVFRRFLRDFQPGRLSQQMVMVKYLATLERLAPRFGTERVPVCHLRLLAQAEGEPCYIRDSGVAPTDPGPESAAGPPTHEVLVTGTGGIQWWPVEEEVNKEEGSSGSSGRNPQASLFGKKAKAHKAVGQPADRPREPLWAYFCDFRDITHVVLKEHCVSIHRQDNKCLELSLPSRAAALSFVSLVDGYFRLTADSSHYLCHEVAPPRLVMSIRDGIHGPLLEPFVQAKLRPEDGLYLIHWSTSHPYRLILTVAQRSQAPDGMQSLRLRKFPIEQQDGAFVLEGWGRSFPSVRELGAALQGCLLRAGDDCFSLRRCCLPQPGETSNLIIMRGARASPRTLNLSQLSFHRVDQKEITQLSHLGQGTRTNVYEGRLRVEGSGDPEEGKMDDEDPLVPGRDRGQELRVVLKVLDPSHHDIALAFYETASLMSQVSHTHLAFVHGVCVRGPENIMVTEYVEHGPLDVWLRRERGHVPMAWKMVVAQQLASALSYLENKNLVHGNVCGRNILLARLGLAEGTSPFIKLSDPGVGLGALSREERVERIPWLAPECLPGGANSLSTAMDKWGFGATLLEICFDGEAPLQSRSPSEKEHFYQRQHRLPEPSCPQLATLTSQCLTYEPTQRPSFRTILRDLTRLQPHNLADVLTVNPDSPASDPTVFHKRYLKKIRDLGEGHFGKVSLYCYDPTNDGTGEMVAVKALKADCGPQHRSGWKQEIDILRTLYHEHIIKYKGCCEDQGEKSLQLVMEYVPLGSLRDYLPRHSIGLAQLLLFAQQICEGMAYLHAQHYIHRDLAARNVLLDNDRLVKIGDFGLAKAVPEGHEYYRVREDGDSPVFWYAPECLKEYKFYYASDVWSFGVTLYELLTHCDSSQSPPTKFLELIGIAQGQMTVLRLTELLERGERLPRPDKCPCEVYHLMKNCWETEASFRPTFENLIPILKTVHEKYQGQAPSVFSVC
Chain of JAK 2 (O60674 whole entry): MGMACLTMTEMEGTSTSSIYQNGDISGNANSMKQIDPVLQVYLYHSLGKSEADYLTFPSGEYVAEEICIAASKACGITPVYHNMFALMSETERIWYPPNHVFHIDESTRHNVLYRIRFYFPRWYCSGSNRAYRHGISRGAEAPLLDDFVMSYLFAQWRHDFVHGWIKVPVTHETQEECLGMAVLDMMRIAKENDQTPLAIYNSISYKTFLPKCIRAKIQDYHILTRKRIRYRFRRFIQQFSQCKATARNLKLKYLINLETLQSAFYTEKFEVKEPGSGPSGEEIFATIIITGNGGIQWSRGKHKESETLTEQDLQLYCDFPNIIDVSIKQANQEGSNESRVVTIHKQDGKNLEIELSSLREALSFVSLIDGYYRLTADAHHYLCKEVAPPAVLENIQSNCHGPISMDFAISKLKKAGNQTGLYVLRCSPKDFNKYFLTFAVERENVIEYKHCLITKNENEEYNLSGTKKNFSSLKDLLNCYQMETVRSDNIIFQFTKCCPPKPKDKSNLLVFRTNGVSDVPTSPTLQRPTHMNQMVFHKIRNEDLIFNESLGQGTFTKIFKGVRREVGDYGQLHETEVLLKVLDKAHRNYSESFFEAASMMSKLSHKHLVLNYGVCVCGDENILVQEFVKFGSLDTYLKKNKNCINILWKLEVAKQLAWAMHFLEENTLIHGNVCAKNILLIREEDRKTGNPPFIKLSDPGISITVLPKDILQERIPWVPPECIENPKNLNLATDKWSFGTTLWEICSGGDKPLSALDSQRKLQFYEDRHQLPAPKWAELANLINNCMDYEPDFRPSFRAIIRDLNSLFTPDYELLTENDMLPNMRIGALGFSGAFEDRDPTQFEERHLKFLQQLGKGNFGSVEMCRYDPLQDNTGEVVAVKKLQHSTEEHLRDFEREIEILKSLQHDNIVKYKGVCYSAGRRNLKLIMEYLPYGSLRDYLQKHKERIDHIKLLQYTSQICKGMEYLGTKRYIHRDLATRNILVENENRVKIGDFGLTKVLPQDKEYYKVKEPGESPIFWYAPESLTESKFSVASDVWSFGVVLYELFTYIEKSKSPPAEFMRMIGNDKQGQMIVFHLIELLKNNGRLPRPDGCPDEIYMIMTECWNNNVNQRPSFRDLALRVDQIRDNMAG
Chain of JAK 1 (P23458 whole entry, canonical isoform): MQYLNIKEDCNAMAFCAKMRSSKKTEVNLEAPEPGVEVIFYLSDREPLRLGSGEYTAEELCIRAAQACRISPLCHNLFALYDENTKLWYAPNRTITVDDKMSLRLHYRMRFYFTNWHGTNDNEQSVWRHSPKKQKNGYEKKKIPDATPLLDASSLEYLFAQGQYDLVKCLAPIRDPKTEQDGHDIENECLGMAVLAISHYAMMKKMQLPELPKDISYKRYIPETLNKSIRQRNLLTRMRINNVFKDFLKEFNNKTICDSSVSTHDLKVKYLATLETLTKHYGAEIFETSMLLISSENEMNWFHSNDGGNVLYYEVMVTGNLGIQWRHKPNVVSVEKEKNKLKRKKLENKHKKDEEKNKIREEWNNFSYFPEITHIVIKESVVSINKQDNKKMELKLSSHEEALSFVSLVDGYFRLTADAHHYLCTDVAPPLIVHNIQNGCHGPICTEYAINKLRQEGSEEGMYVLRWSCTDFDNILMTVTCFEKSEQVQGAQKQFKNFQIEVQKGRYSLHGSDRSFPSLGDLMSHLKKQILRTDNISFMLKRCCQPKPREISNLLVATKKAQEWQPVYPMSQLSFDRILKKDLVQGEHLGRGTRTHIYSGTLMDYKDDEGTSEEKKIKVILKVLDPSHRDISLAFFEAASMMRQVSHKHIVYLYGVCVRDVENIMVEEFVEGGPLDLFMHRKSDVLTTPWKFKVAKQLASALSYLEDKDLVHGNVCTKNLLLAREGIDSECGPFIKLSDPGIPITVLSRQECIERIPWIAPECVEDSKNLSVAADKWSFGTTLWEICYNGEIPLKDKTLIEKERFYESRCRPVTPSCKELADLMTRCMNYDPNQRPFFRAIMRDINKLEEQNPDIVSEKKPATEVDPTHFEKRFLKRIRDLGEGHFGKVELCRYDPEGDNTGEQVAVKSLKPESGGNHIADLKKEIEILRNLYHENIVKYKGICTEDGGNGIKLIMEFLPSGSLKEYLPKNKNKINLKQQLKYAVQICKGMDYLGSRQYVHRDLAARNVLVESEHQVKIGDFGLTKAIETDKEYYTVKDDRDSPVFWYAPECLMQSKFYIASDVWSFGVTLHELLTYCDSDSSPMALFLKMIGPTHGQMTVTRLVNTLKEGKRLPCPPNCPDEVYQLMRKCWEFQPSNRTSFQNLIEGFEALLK

IC50 (JAK 1) | IC50 (JAK 3) | IC50 (TYK2) | IC50 (JAK 2) | SMILES
5.01 to 50.1 nM | > 50.1 nM | > 50.1 nM | 5.01 to 50.1 nM | CNCc1nn(-c2cc(S(C)(=O)=O)ccc2OC)c2cc(-c3cnn4cccnc34)ncc12 [Example 89, 1-(1-(2-Methoxy-5-(methylsulfonyl)phenyl)-6-(pyrazolo[1,5-a]pyrimidin-3-yl)-1H-pyrazolo[4,3-c]pyridin-3-yl)-N-methylmethanamine]
≤ 5.01 nM | 5.01 to 50.1 nM | 5.01 to 50.1 nM | 5.01 to 50.1 nM | COc1cc(O)c(F)cc1-n1nc(C(=O)NCCCN(C)C)c2cnc(-c3cnn4cccnc34)cc21 [Example 88, N-(3-(dimethylamino)propyl)-1-(5-fluoro-4-hydroxy-2-methoxyphenyl)-6-(pyrazolo[1,5-a]pyrimidin-3-yl)-1H-pyrazolo[4,3-c]pyridine-3-carboxamide]
≤ 5.01 nM | ≤ 5.01 nM | 5.01 to 50.1 nM | ≤ 5.01 nM | CNc1nn(-c2cc(Cl)ccc2OC)c2cc(-c3cnn4cccnc34)ncc12 [Example 41, 1-(5-chloro-2-methoxyphenyl)-N-methyl-6-(pyrazolo[1,5-a]pyrimidin-3-yl)-1H-pyrazolo[4,3-c]pyridin-3-amine]
≤ 5.01 nM | ≤ 5.01 nM | 5.01 to 50.1 nM | ≤ 5.01 nM | COc1cc(O)c(Cl)cc1-n1nc(C)c2cnc(-c3cnn4cccnc34)cc21 [Example 59, 2-chloro-5-methoxy-4-(3-methyl-6-(pyrazolo[1,5-a]pyrimidin-3-yl)-1H-pyrazolo[4,3-c]pyridin-1-yl)phenol]
≤ 5.01 nM | ≤ 5.01 nM | 5.01 to 50.1 nM | ≤ 5.01 nM | Cc1nn(-c2cc(Cl)ccc2OC(F)F)c2cc(Nc3ncc[nH]c3=O)ncc12 [Example 99, 3-((1-(5-chloro-2-(difluoromethoxy)phenyl)-3-methyl-1H-pyrazolo[4,3-c]pyridin-6-yl)amino)pyrazin-2(1H)-one]
5.01 to 50.1 nM | 5.01 to 50.1 nM | > 50.1 nM | 5.01 to 50.1 nM | NC1CN(Cc2nn(-c3cc(Cl)ccc3OC(F)F)c3cc(-c4cnn5cccnc45)ncc23)C1 [Example 76, 1-((1-(5-chloro-2-(difluoromethoxy)phenyl)-6-(pyrazolo[1,5-a]pyrimidin-3-yl)-1H-pyrazolo[4,3-c]pyridin-3-yl)methyl)azetidin-3-amine]
5.01 to 50.1 nM | > 50.1 nM | > 50.1 nM | 5.01 to 50.1 nM | COc1ccc(S(=O)(=O)NCCN2CCOCC2)cc1-n1nc(C)c2cnc(-c3cnn4cccnc34)cc21 [Example 19, 4-methoxy-3-(3-methyl-6-(pyrazolo[1,5-a]pyrimidin-3-yl)-1H-pyrazolo[4,3-c]pyridin-1-yl)-N-(2-morpholinoethyl)benzenesulfonamide]
5.01 to 50.1 nM | > 50.1 nM | > 50.1 nM | > 50.1 nM | COc1ccc(Cl)cc1-n1ncc2c(NCCNC(C)=O)nc(-c3cnn4cccnc34)cc21 [Example 53, N-(2-((1-(5-chloro-2-methoxyphenyl)-6-(pyrazolo[1,5-a]pyrimidin-3-yl)-1H-pyrazolo[4,3-c]pyridin-4-yl)amino)ethyl)acetamide]
5.01 to 50.1 nM | 5.01 to 50.1 nM | 5.01 to 50.1 nM | ≤ 5.01 nM | COc1ccc(F)cc1-n1nc(C)c2cnc(-c3cnn4cccnc34)cc21 [Example 1, 1-(5-fluoro-2-methoxyphenyl)-3-methyl-6-(pyrazolo[1,5-a]pyrimidin-3-yl)-1H-pyrazolo[4,3-c]pyridine]
5.01 to 50.1 nM | 5.01 to 50.1 nM | > 50.1 nM | 5.01 to 50.1 nM | COc1ccc(Cl)cc1-n1nc(C(=O)N[C@H]2C[C@H](N3CCOCC3)C2)c2cnc(-c3cnn4cccnc34)cc21 [Example 79, 1-(5-chloro-2-methoxyphenyl)-N-((1r,3r)-3-morpholinocyclobutyl)-6-(pyrazolo[1,5-a]pyrimidin-3-yl)-1H-pyrazolo[4,3-c]pyridine-3-carboxamide]
5.01 to 50.1 nM | 5.01 to 50.1 nM | > 50.1 nM | 5.01 to 50.1 nM | Cc1nn(-c2cc(S(=O)(=O)CCN3CCCCC3)ccc2OC(F)F)c2cc(-c3cnn4cccnc34)ncc12 [Example 23, 1-(2-(difluoromethoxy)-5-((2-(piperidin-1-yl)ethyl)sulfonyl)phenyl)-3-methyl-6-(pyrazolo[1,5-a]pyrimidin-3-yl)-1H-pyrazolo[4,3-c]pyridine]
≤ 5.01 nM | ≤ 5.01 nM | 5.01 to 50.1 nM | ≤ 5.01 nM | Cc1nn(-c2cc(S(C)(=O)=O)ccc2OC(F)F)c2cc(-c3cnn4cccnc34)ncc12 [Example 26, 1-(2-(difluoromethoxy)-5-(methylsulfonyl)phenyl)-3-methyl-6-(pyrazolo[1,5-a]pyrimidin-3-yl)-1H-pyrazolo[4,3-c]pyridine]
5.01 to 50.1 nM | 5.01 to 50.1 nM | 5.01 to 50.1 nM | ≤ 5.01 nM | Cc1nn(-c2cc(Cl)ccc2O)c2cc(-c3cnn4cccnc34)ncc12 [Example 12, 4-chloro-2-(3-methyl-6-(pyrazolo[1,5-a]pyrimidin-3-yl)-1H-pyrazolo[4,3-c]pyridin-1-yl)phenol]
5.01 to 50.1 nM | ≤ 5.01 nM | 5.01 to 50.1 nM | ≤ 5.01 nM | CSc1ccc(OC(F)F)c(-n2nc(NCCCN(C)C)c3cnc(-c4cnn5cccnc45)cc32)c1 [Example 46, N1-(1-(2-(difluoromethoxy)-5-(methylthio)phenyl)-6-(pyrazolo[1,5-a]pyrimidin-3-yl)-1H-pyrazolo[4,3-c]pyridin-3-yl)-N3,N3-dimethylpropane-1,3-diamine]
5.01 to 50.1 nM | 5.01 to 50.1 nM | 5.01 to 50.1 nM | ≤ 5.01 nM | CSc1ccc(Cl)cc1-n1nc(C)c2cnc(-c3cnn4cccnc34)cc21 [Example 5, 1-(5-chloro-2-(methylthio)phenyl)-3-methyl-6-(pyrazolo[1,5-a]pyrimidin-3-yl)-1H-pyrazolo[4,3-c]pyridine]
